Experimental data from patent US12364702B2, “Highly active sting protein agonist compound” (ADLAI NORTYE BIOPHARMA CO., LTD., priority 2018, dated 2025).

Key:
Type in all cases: cell-based
STING HAQ variant [1] = molecular target: T1, STING HAQ variant (Homo sapiens, UniProt Q86WV6, G230A/R293Q/R71H); experiment: SEAP reporter assay in HEK-Blue ISG KO-STING cells transfected with STING HAQ variant (Method 1); conditions: compound 7.8 uM, 24 h, SEAP signal vs 0.5% DMSO
T1 construct: host or cells: HEK-Blue ISG KO-STING cells (Invivogen, hkb-kostg)
Outline: (§1)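 HEK-Blue ISG KO-STING cells transfected with 1 ng STING variant plasmid for 24 h at 37 °C, then compound-treated 24 h (0.5% DMSO final). SEAP chemiluminescence read in supernatant; viability by CellTiter-Glo. Values are compound signal relative to 0.5% DMSO.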

STING = STING (Homo sapiens, UniProt Q86WV6); experiment: IFN-β secretion from THP1 by STING activation (hIFNβ ELISA); conditions: THP1 cells; 24 h incubation; IFN-β in supernatant; top dose set according to solubility; read-out: hIFNβ ELISA (EC50)
Outline: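 THP1 cells (2×10^6 cells/ml) exposed 24 h at 37° C, 5% CO2 to 8-point, 3-fold compound dilutions, 0.2% DMSO final, top dose set by solubility. Secreted IFN-β in supernatant measured by human IFNβ ELISA; EC50 from curve fitting.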

STING WT variant [2] = molecular target: T2, STING WT variant (Homo sapiens, UniProt Q86WV6); experiment: SEAP reporter assay in HEK-Blue ISG KO-STING cells transfected with STING WT variant (Method 1); conditions: compound 7.8 uM, 24 h, SEAP signal vs 0.5% DMSO
T2 construct: host or cells: HEK-Blue ISG KO-STING cells (Invivogen, hkb-kostg)
Outline: as §1

STING WT variant [3] = molecular target: T2, STING WT variant; experiment: SEAP reporter assay in HEK-Blue ISG KO-STING cells transfected with STING WT variant (Method 2); design: key: ratio of compound SEAP signal to 0.5% DMSO; conditions: 1 ng STING vector (WT variant), compound 2.5 uM, 24 h, SEAP signal vs 0.5% DMSO
Excerpt: (§2) Activation of STING can be determined using a SEAP reporter assay in HEK-Blue™ ISG KO-STING cells (Invivogen, cat #hkb-kostg) transfected with plasmids expressing STING variants (WT & HAQ) (referred to WO2017/175147A1). STING variants (WT & HAQ) vector were constructed based on STING-232H vector (Origene, RC208418). GFP vector (VT2069) was bought from Youbio. The detailed protocol as follows: HEK-Blue™ ISG KO-STING cells were harvest and seeding into 96 well plate and the final cell number was 0.8×10^5 cells/well. Transfections were prepared using Lipofectamine 2000 (Invitrogen, Cat #11668-027) following the manufacturer's instructions (Lipo2000/DNA=1/10), 20 ul of transfection suspension containing 1 ng (WT variant) or 0.0625 ng (HAQ variant) STING vector was added to cell culture plate and incubated at 37° C., 5% CO2 for 24 hours. After 24 hours incubation, compounds were added at proper concentration, the final DMSO concentration was 0.5%. After 24 h incubation, the supernatant was collected to detect SEAP signal using Great EscAPe SEAP chemiluminescence KIT (Clontech, cat #631738) and cells were collected to detect cell viability using CellTiter-Glo Luminescent Cell Viability Assay (Promega, cat #G7573) following the manufacturer's instructions. The data were described by the ratio of the stimulating signal of compounds to 0.5% DMSO.

STING HAQ variant [4] = molecular target: T1, STING HAQ variant; experiment: SEAP reporter assay in HEK-Blue ISG KO-STING cells transfected with STING HAQ variant (Method 2); design: key: ratio of compound SEAP signal to 0.5% DMSO; conditions: 0.0625 ng STING vector (HAQ variant), compound 5 uM, 24 h, SEAP signal vs 0.5% DMSO
Excerpt: as §2

T1 sequence (Q86WV6 whole entry R71H/G230A/R293Q): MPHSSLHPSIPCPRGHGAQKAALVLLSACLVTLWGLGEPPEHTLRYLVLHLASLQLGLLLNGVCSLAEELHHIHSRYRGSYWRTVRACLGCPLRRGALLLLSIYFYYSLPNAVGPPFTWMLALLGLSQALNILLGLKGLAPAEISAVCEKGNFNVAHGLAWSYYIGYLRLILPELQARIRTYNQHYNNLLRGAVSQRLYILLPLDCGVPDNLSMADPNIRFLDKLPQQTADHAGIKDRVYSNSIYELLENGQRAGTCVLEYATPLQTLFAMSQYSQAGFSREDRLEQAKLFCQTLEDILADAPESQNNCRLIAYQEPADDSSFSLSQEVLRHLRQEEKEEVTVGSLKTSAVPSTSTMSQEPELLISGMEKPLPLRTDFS
Sequence of STING (Q86WV6 whole entry): as the sequence (Q86WV6 whole entry R71H/G230A/R293Q) above, with H71R, A230G, Q293R counted along it

Fold change related to DMSO control HAQ (STING HAQ variant [1])	EC50 (STING) [µM]	Fold change related to DMSO control WT (STING WT variant [2])	Fold change related to DMSO control WT (STING WT variant [3])	Fold change related to DMSO control HAQ (STING HAQ variant [4])	SMILES
36.93	2.1	2.29	13.65	24.13	CCn1nc(C)cc1C(=O)Nc1nc2cc(C(N)=O)cc(OCCCOC)c2n1CCC[C@H]1COc2cc(C(N)=O)cc3nc(NC(=O)c4cc(C)nn4CC)n1c23 [Example 1, (S)-3-(3-(5-Carbamoyl-2-(1-ethyl-3-methyl-1H-pyrazole-5-carboxamido)-7-(3-methoxypropoxy)-1H-benzo[d]imidazol-1-yl)propyl)-2-(1-ethyl-3-methyl-1H-pyrazole-5-carboxamido)-3,4-dihydro-5-oxa-1,2a-diazaacenaphthylene-7-carboxamide]
	1.2		11.71	26.34	CCn1nc(C)cc1C(=O)Nc1nc2cc(C(N)=O)cc(OCCCNC(=O)CN3CCOCC3)c2n1CCC[C@H]1COc2cc(C(N)=O)cc3nc(NC(=O)c4c(Cl)c(C)nn4CC)n1c23 [Example 55, (S)-3-(3-(5-carbamoyl-2-(1-ethyl-3-methyl-1H-pyrazole-5-carboxamido)-7-(3-(2-morpholinoacetamido)propoxy)-1H-benzo[d]imidazol-1-yl)propyl)-2-(4-chloro-1-ethyl-3-methyl-1H-pyrazole-5-carboxamido)-3,4-dihydro-5-oxa-1,2a-diazaacenaphthylene-7-carboxamide]
	17.3		6.76	10.61	CCn1nc(C)cc1C(=O)Nc1nc2cc(C(N)=O)cc(OCCCN=C(N(C)C)N(C)C)c2n1CCC[C@H]1COc2cc(C(N)=O)cc3nc(NC(=O)c4cc(C)nn4CC)n1c23 [Example 56, (S)-3-(3-(7-(3-((bis(dimethylamino)methylene)amino)propoxy)-5-carbamoyl-2-(1-ethyl-3-methyl-1H-pyrazole-5-carboxamido)-1H-benzo[d]imidazol-1-yl)propyl)-2-(1-ethyl-3-methyl-1H-pyrazole-5-carboxamido)-3,4-dihydro-5-oxa-1,2a-diazaacenaphthylene-7-carboxamide]
	2.6		11.24	23.35	CCn1nc(C)cc1C(=O)Nc1nc2cc(C(N)=O)cc(OCCCO)c2n1CCC[C@H]1CN(C)c2cc(C(N)=O)cc3nc(NC(=O)c4cc(C)nn4CC)n1c23 [Example 57, (S)-4-(3-(5-carbamoyl-2-(1-ethyl-3-methyl-1H-pyrazole-5-carboxamido)-7-(3-hydroxypropoxy)-1H-benzo[d]imidazol-1-yl)propyl)-2-(1-ethyl-3-methyl-1H-pyrazole-5-carboxamido)-6-methyl-5,6-dihydro-4H-imidazo[1,5,4-de]quinoxaline-8-carboxamide]
